Read-outs that look alike come from different tables or passages of the source.
How the values were obtained:
Assay type in all cases: in vivo
[1] = test system: housefly adults (Musca domestica); assay: Oil spray in (70 cm)^3 glass chamber, housefly adults, KT50 and mortality (Experimental Example 2); conditions: for mortality at 0.1 %: Musca domestica
Description: (§1) 0.1 Part of each of the present compounds was dissolved in kerosene and made up to 100 parts with kerosene. Thus, the oil spray of each compound was obtained. Ten northern house mosquito female adults (Culex pipiens pallens) and 10 housefly adults (Musca domestica) were liberated in a (70 cm)^3 glass chamber. 0.7 ml of the oil spray was applied and the number of knocked down insects was counted with the lapse of time. The value of KT50 was obtained from the mean knock-down ratio of three replications according to Finney's graphic method. After 10 minutes, the knocked down insects were collected and transferred to a recovery container and fed with a 5% sugar solution. After 24 hours, the dead and alive were examined.

[2] = test system: housefly female adults (Musca domestica); assay: Housefly female adults on treated filter paper in polyethylene cup, mortality after 48 hours (Experimental Example 1)
Description: Ten percent emulsifiable concentrates were prepared as in the Preparation example 3.
At the bottom of a polyethylene cup of 5.5 cm in diameter was placed a filter paper of the same size. 0.75 Ml of a 200-fold aqueous dilute solution of each emulsifiable concentrate (corresponding to 500 ppm) was dropped on the filter paper, and 30 mg of sucrose as a food was uniformly placed. Ten housefly female adults (Musca domestica) were liberated in the cup which was then covered with a lid. After 48 hours, the dead and alive were examined to obtain mortality (4 replications).

[3] = test system: adult German cockroaches (Blattella germanica); assay: Flushing out of German cockroaches from shelter (Experimental Example 8); conditions: 0.7 ml of 0.1% oil spray
Description: Ten adult German cockroaches (Blattella germanica) were liberated in a plywood-made trigonal prism like shelter with diet and water. The shelter containing cockroaches was made stand opening upward in a glass chamber (70 cm)^3, and 0.7 ml of 0.1% oil spray of each compound was applied to the chamber. The number of flushed out insects was counted with the lapse of time.

[4] = test system: northern house mosquito female adults (Culex pipiens pallens); assay: Oil spray in (70 cm)^3 glass chamber, northern house mosquito female adults, KT50 and mortality (Experimental Example 2); conditions: for mortality at 0.1 %: Culex pipiens
Description: as §1

[5] = test system: northern house mosquito female adults (Culex pipiens pallens); assay: Oil spray in (70 cm)^3 glass chamber, knock down of mosquitoes at 10 minutes (Experimental Example 3); conditions: oil sprays of Preparation example 1 (0.2 part in 100), 0.7 ml, 10 minutes after spraying, read-out: KD%
Text: Ten northern house mosquito female adults (Culex pipiens pallens) were liberated in a (70 cm)^3 glass chamber.

[6] = housefly adult, 0.1% oil spray, 0.7 ml
[7] = northern house mosquito female adult, 0.1% oil spray, 0.7 ml
[8] = 200-fold aqueous dilution of emulsifiable concentrate (500 ppm), 48 hours, housefly female adults, read-out: Mortality

SMILES: C#CCN1CC(=O)N(COC(=O)C2C(C=C(Cl)Cl)C2(C)C)C1=O (racemic) [Present compound (1) (dl-cis,trans isomer), 1-Propargyl-3-hydantoinylmethyl 2,2-dimethyl-3-(2,2-dichlorovinyl)cyclopropanecarboxylate]
- mortality at 0.1 % ([1]; 24 h): 60%
- KT50 [1, 6]: 96 s
- mortality at 500 µg/mL ([2]; 48 h): 100%
- Flushing out ([3]; 38"): 35%
- Flushing out ([3]; 75"): 65%
- Flushing out ([3]; 150"): 75%
- Flushing out ([3]; 300"): 85%
- Flushing out ([3]; 600"): 95%
- mortality at 0.1 % ([4]; 24 h): 90%
- KT50 [4, 7]: 69 s

SMILES: C#CCN1CC(=O)N(COC(=O)[C@@H]2[C@@H](C=C(C)C=C)C2(C)C)C1=O (relative stereo) [Present compound (10), 1-Propargyl-3-hydantoinylmethyl 2,2-dimethyl-3-(2-methylbutadienyl)cyclopropanecarboxylate]
- mortality at 500 µg/mL ([2]; 48 h): 95%
- pest or weed control at 0.2 % [5]: 90%

SMILES: C#CCN1CC(=O)N(COC(=O)[C@@H]2[C@@H](C=C(Cl)Cl)C2(C)C)C1=O [Present compound (1) (d-trans isomer), 1-Propargyl-3-hydantoinylmethyl 2,2-dimethyl-3-(2,2-dichlorovinyl)cyclopropanecarboxylate]
- mortality at 0.1 % ([1]; 24 h): 80%
- KT50 [1, 6]: 60 s
- mortality at 500 µg/mL ([2]; 48 h): 100%
- mortality at 0.1 % ([4]; 24 h): 100%
- KT50 [4, 7]: 30 s

SMILES: CCCN1CC(=O)N(COC(=O)C2C(C=C(Cl)Cl)C2(C)C)C1=O (stereo not shown) [Present compound (3), 1-Propyl-3-hydantoinylmethyl 2,2-dimethyl-3-(2,2-dichlorovinyl)cyclopropanecarboxylate]
- Flushing out ([3]; 38"): 30%
- Flushing out ([3]; 75"): 45%
- Flushing out ([3]; 150"): 45%
- Flushing out ([3]; 300"): 50%
- Flushing out ([3]; 600"): 65%
- pest or weed control at 0.2 % [5]: 100%

SMILES: C#CCN1C(=O)CN(COC(=O)C2C(C=C(Cl)Cl)C2(C)C)C1=O (stereo not shown) [Present compound (4), 3-Propargyl-1-hydantoinylmethyl 2,2-dimethyl-3-(2,2-dichlorovinyl)cyclopropanecarboxylate]
- mortality at 0.1 % ([1]; 24 h): 30%
- KT50 [1, 6]: 280 s
- mortality at 500 µg/mL ([2]; 48 h): 100%
- mortality at 0.1 % ([4]; 24 h): 85%
- KT50 [4, 7]: 50 s

SMILES: C=CCN1C(=O)CN(COC(=O)C2C(C=C(Cl)Cl)C2(C)C)C1=O (stereo not shown) [Present compound (5), 3-Allyl-1-hydantoinylmethyl 2,2-dimethyl-3-(2,2-dichlorovinyl)-cyclopropanecarboxylate]
- mortality at 500 µg/mL ([2]; 48 h): 100%
- pest or weed control at 0.2 % [5]: 100%

SMILES: C#CCN1CC(=O)N(COC(=O)[C@@H]2[C@@H](C=C(C)C)C2(C)C)C1=O [Present compound (7), 1-Propargyl-3-hydantoinylmethyl chrysanthemate]
- mortality at 0.1 % ([1]; 24 h): 10%
- KT50 [1, 6]: 72 s
- mortality at 500 µg/mL ([2]; 48 h): 100%
- mortality at 0.1 % ([4]; 24 h): 100%
- KT50 [4, 7]: 30 s

SMILES: C#CCN1CC(=O)N(COC(=O)[C@@H]2[C@H](C=C(Br)Br)C2(C)C)C1=O [Present compound (11) (d-cis isomer), 1-Propargyl-3-hydantoinylmethyl 2,2-dimethyl-3-(2,2-dibromovinyl)cyclopropanecarboxylate]
- mortality at 0.1 % ([1]; 24 h): 10%
- KT50 [1, 6]: 96 s
- mortality at 500 µg/mL ([2]; 48 h): 100%
- mortality at 0.1 % ([4]; 24 h): 95%
- KT50 [4, 7]: 38 s

SMILES: C#CCN1CC(=O)N(COC(=O)[C@@H]2[C@@H](C=C(Br)Br)C2(C)C)C1=O [Present compound (11) (d-trans isomer), 1-Propargyl-3-hydantoinylmethyl 2,2-dimethyl-3-(2,2-dibromovinyl)cyclopropanecarboxylate]
- mortality at 0.1 % ([1]; 24 h): 30%
- KT50 [1, 6]: 78 s
- mortality at 500 µg/mL ([2]; 48 h): 100%
- mortality at 0.1 % ([4]; 24 h): 85%
- KT50 [4, 7]: 35 s

SMILES: C#CCN1CC(=O)N(COC(=O)[C@@H]2[C@@H](C=NOC)C2(C)C)C1=O [Present compound (12), 1-Propargyl-3-hydantoinylmethyl 2,2-dimethyl-3-methoxyiminomethylcyclopropanecarboxylate]
- pest or weed control at 0.2 % [5]: 100%

SMILES: C#CCN1CC(=O)N(COC(=O)C(c2cccc(Cl)c2)C(C)C)C1=O (stereo not drawn) [Present compound (14), 1-Propargyl-3-hydantoinylmethyl α-(3-chlorophenyl)isovalerate]
- mortality at 500 µg/mL [2, 8]: 100%
- pest or weed control at 0.2 % [5]: 85%

SMILES: C#CCN1CC(=O)N(COC(=O)C(c2ccc(C)cc2)C(C)C)C1=O (stereo not drawn) [Present compound (15), 1-Propargyl-3-hydantoinylmethyl α-(4-methylphenyl)isovalerate]
- mortality at 500 µg/mL [2, 8]: 90%
- pest or weed control at 0.2 % [5]: 90%

SMILES: C#CCN1CC(=O)N(COC(=O)C(c2ccc3c(c2)OCO3)C(C)C)C1=O (stereo not drawn) [Present compound (16), 1-Propargyl-3-hydantoinylmethyl α-(3,4-methylenedioxyphenyl)isovalerate]
- mortality at 500 µg/mL [2, 8]: 90%
- pest or weed control at 0.2 % [5]: 100%

SMILES: C#CCN1CC(=O)N(COC(=O)C(c2ccc(OC)cc2)C(C)C)C1=O (stereo not drawn) [Present compound (17), 1-Propargyl-3-hydantoinylmethyl α-(4-methoxyphenyl)isovalerate]
- mortality at 0.1 % ([1]; housefly adult, 0.1% oil spray, 0.7 ml, after 24 hours, read-out: Mortality): 35%
- KT50 [1, 6]: 280 s
- mortality at 500 µg/mL [2, 8]: 95%
- mortality at 0.1 % ([4]; northern house mosquito female adult, 0.1% oil spray, 0.7 ml, after 24 hours, read-out: Mortality): 75%
- KT50 [4, 7]: 140 s

SMILES: C=CCN1CC(=O)N(COC(=O)C(c2ccc(Br)cc2)C(C)C)C1=O (stereo not drawn) [Present compound (18), 1-Allyl-3-hydantoinylmethyl α-(4-bromophenyl)isovalerate]
- mortality at 500 µg/mL [2, 8]: 100%
- pest or weed control at 0.2 % [5]: 90%

SMILES: C#CCN1CC(=O)N(COC(=O)C(c2ccc(Cl)c(Cl)c2)C(C)C)C1=O (stereo not drawn) [Present compound (19), 1-Propargyl-3-hydantoinylmethyl α-(3,4-dichlorophenyl)isovalerate]
- pest or weed control at 0.2 % [5]: 85%

SMILES: C=CCN1CC(=O)N(COC(=O)C(c2ccc(Cl)cc2)C(C)C)C1=O (stereo not drawn) [Present compound (20), 1-Allyl-3-hydantoinylmethyl α-(4-chlorophenyl)isovalerate]
- pest or weed control at 0.2 % [5]: 85%

SMILES: C#CCN1C(=O)CN(COC(=O)C(c2ccc(F)cc2)C(C)C)C1=O (stereo not drawn) [Present compound (21), 3-Propargyl-1-hydantoinylmethyl α-(4-fluorophenyl)isovalerate]
- mortality at 500 µg/mL [2, 8]: 90%
- pest or weed control at 0.2 % [5]: 90%

SMILES: C#CCN1C(=O)N(COC(=O)C2C(C=C(Cl)Cl)C2(C)C)C(=O)C1C (stereo not shown) [Present compound (22), 1-Propargyl-5-methyl-3-hydantoinylmethyl 2,2-dimethyl-3-(2,2-dichlorovinyl)cyclopropanecarboxylate]
- mortality at 0.1 % ([1]; 24 h): 20%
- KT50 [1, 6]: 114 s
- mortality at 0.1 % ([4]; 24 h): 85%
- KT50 [4, 7]: 75 s

SMILES: C#CCN1C(=O)N(COC(=O)C2C(C=C(C)C)C2(C)C)C(=O)C1C (stereo not shown) [Present compound (23), 1-Propargyl-5-methyl-3-hydantoinylmethyl chrysanthemate]
- pest or weed control at 0.2 % [5]: 100%

SMILES: C#CCN1C(=O)N(COC(=O)C2C(C=C(Cl)Cl)C2(C)C)C(=O)C1CC (stereo not shown) [Present compound (24), 1-Propargyl-5-ethyl-3-hydantoinylmethyl 2,2-dimethyl-3-(2,2-dichlorovinyl)cyclopropanecarboxylate]
- pest or weed control at 0.2 % [5]: 85%

SMILES: CNC(=O)Oc1ccccc1OC(C)C [Propoxur, reference compound]
- Flushing out ([3]; 38"): 0%
- Flushing out ([3]; 75"): 0%
- Flushing out ([3]; 150"): 0%
- Flushing out ([3]; 300"): 0%
- Flushing out ([3]; 600"): 5%

SMILES: CC(C)=CC1C(C(=O)OCc2coc(Cc3ccccc3)c2)C1(C)C (stereo not shown) [Resmethrin, 5-benzyl-3-furylmethyl chrysanthemate, reference compound]
- pest or weed control at 0.2 % [5]: 50%

SMILES: CC(C)=CC1C(C(=O)OCN2C(=O)C3=C(CCCC3)C2=O)C1(C)C (stereo not shown) [Tetramethrin, N-(chrysanthemoxymethyl)-3,4,5,6-tetrahydrophthalimide, reference compound]
- mortality at 0.1 % ([1]; 24 h): 20%
- KT50 [1, 6]: 372 s
- mortality at 0.1 % ([4]; 24 h): 45%
- KT50 [4, 7]: 162 s
